From US20240270809A1, “ORAL GLP RECEPTOR AGONISTS” (priority 2020, published 2024)
Positions of bridges follow the written chain, without caps; N, C: chain ends. Non-standard residues stand in square brackets, D forms with d. Residues, ends and D or L forms follow the SMILES beside them. *: point of attachment. Malonyl(2,2-Me2,histaminyl) = CC(C)(C(=O)NCCc1cnc[nH]1)C(=O)*; Ala(1H-tetrazol-5-yl) = N[C@@H](Cc1nnn[nH]1)C(=O)O; αMeL = CC(C)C[C@](C)(N)C(=O)O; Nle = CCCC[C@H](N)C(=O)O; Aib = CC(C)(N)C(=O)O; Alloc = C=CCOC(=O)*

Key:
human GLP2 receptor = biological target: T1, human GLP2 receptor (Homo sapiens, UniProt O95838); assay: cAMP accumulation assay, functional agonism of human GLP2 receptor; type: cell-based; conditions: HEK cells infected with human GLP2 receptor BacMam virus, HTRF cAMP; for Emax: HEK293, read-out: Human GLP-2R agonist cAMP Emax; for EC50: read-out: Human GLP-2R agonist cAMP pEC50 (converted)
T1 construct: expressed in transfected cells; host or cells: HEK cells, BacMam virus transduction
T1 sequence (O95838 1-553): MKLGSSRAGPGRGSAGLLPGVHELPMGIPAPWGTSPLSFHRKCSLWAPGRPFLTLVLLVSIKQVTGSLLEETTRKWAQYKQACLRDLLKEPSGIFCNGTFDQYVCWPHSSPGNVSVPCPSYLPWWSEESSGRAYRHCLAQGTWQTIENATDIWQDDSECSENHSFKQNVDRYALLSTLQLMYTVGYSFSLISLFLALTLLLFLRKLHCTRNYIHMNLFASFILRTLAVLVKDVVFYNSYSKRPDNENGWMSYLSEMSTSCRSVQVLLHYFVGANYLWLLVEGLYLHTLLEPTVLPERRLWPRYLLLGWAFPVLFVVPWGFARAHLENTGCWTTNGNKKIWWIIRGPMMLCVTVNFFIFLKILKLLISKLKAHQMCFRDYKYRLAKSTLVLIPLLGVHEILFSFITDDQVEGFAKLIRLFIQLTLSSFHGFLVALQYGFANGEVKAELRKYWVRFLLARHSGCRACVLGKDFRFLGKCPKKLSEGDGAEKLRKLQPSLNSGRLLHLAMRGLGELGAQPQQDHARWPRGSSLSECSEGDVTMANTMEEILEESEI
Description: (§1) CAMP production upon agonist stimulation of human GLP2 or GLP1 receptor was assessed utilizing HiRange cAMP kit (Cisbio). In brief, HEK cells were infected with either human GLP2 or GLP1 receptor BacMam virus for 24 hours and frozen for later use in the assay. […] Cells were prepared in the assay buffer (HBSS (Lonza) supplemented with 0.5 mM IBMX (Tocris)). After 45 min incubation at 37° C., the reaction was stopped by addition of the HTRF detection reagents in the lysis buffer provided in the kit.

human GLP1 receptor = biological target: T2, human GLP1 receptor (Homo sapiens, UniProt P43220); assay: cAMP accumulation assay, functional agonism of human GLP1 receptor; type: cell-based; conditions: HEK cells infected with human GLP1 receptor BacMam virus, HTRF cAMP; for Emax: HEK293, read-out: Human GLP-1R agonist cAMP Emax; for EC50: read-out: Human GLP-1R agonist cAMP pEC50 (converted)
T2 construct: expressed in transfected cells; host or cells: HEK cells, BacMam virus transduction
Description: as §1

T2 sequence (P43220 24-463): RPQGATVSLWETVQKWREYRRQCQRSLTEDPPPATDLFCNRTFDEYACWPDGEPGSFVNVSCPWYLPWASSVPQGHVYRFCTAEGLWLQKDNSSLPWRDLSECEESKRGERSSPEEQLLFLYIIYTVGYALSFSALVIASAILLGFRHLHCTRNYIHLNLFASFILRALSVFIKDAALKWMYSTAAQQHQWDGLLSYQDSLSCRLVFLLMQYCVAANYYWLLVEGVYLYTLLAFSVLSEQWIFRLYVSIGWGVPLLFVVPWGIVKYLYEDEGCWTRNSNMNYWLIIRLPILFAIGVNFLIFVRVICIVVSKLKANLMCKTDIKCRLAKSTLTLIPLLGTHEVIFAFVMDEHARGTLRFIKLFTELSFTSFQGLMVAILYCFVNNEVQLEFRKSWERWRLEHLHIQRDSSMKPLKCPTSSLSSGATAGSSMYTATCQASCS

| Emax (human GLP2 receptor) | EC50 (human GLP2 receptor) | Emax (human GLP1 receptor) | EC50 (human GLP1 receptor) | Compound |
| --- | --- | --- | --- | --- |
| 104% | 0.02 nM | 92% | 0.501 nM | CCCC[C@@H]1NC(=O)[C@H](CCC(=O)O)NC(=O)[C@@H](NC(=O)[C@H](CO)NC(=O)[C@H](Cc2ccccc2)NC(=O)[C@H](CO)NC(=O)CNC(=O)[C@H](Cc2nn[nH]n2)NC(=O)C(C)(C)C(=O)NCCc2c[nH]cn2)CCCCNC(=O)C[C@@H](C(=O)N[C@H](C(=O)N[C@@H](CC(C)C)C(=O)N[C@@H](CC(=O)O)C(=O)N[C@H]2CCC(=O)NCCCC[C@@H](C(=O)N[C@@H](CC(=O)O)C(=O)N[C@@H](Cc3ccccc3)C(=O)N[C@H](C(=O)N[C@@H](CC(N)=O)C(=O)N[C@@H](Cc3c[nH]c4ccccc34)C(=O)N[C@@H](CC(C)C)C(=O)N[C@H](C(=O)N[C@@H](CCC(N)=O)C(=O)N[C@H](C(=O)N[C@@H](CCCCN)C(=O)N[C@H](C(=O)N[C@H](C(=O)N[C@@H](Cc3ccccc3)C(N)=O)[C@@H](C)O)[C@@H](C)CC)[C@@H](C)O)[C@@H](C)CC)[C@@H](C)CC)NC(=O)[C@H](C)NC(=O)[C@H](C)NC(=O)[C@H](CCCCN)NC2=O)[C@@H](C)CC)NC(=O)[C@@H](Cc2ccccc2)NC1=O [Example 115] ({Malonyl(2,2-Me2,histaminyl)}-[Ala(1H-tetrazol-5-yl)]GSFSKE[Nle][dF]DILDEKAAKDFINWLIQTKITF-NH2; lactam 6-10, 14-18 (inferred); C-terminus assumed) |
| 104% | 0.631 nM | 96.1% | 0.2 nM | CCCC[C@H](NC(=O)[C@H](CCC(=O)O)NC(=O)[C@@H]1CC(=O)NCCCC[C@H](NC(=O)[C@H](Cc2nn[nH]n2)NC(=O)C(C)(C)C(=O)NCCc2c[nH]cn2)C(=O)N[C@@H](CO)C(=O)N[C@@H](Cc2ccccc2)C(=O)N[C@@H](CO)C(=O)N1)C(=O)N[C@H](Cc1ccccc1)C(=O)N[C@H](C(=O)N[C@@](C)(CC(C)C)C(=O)N[C@@H](CC(C)C)C(=O)N[C@@H](CC(=O)O)C(=O)N[C@H]1CCC(=O)NCCCC[C@@H](C(=O)N[C@@H](CC(=O)O)C(=O)N[C@@H](Cc2ccccc2)C(=O)N[C@H](C(=O)N[C@H]2CCC(=O)NCCCC[C@@H](C(=O)N[C@H](C(=O)N[C@H]3CCC(=O)NCCCC[C@@H](C(N)=O)NC(=O)[C@H]([C@@H](C)O)NC(=O)[C@H]([C@@H](C)CC)NC3=O)[C@@H](C)O)NC(=O)[C@H]([C@@H](C)CC)NC(=O)[C@H](CC(C)C)NC(=O)[C@H](Cc3c[nH]c4ccccc34)NC2=O)[C@@H](C)CC)NC(=O)[C@H](C)NC(=O)[C@H](C)NC(=O)[C@H](CCCCN)NC1=O)[C@@H](C)O [Example 44] ({Malonyl(2,2-Me2,histaminyl)}-[Ala(1H-tetrazol-5-yl)]KSFSDE[Nle][dF]T[αMeL]LDEKAAKDFIEWLIKTEITK-NH2; lactam 2-6, 14-18, 22-26, 28-31; C-terminus assumed) |
| 101% | 0.00501 nM | 97.1% | 2.51 nM | CCCC[C@H](NC(=O)[C@H](CCC(=O)O)NC(=O)[C@H](CC(=O)O)NC(=O)[C@H](CO)NC(=O)[C@H](Cc1ccccc1)NC(=O)[C@H](CO)NC(=O)CNC(=O)[C@H](CC(=O)O)NC(=O)C(C)(C)NC(=O)[C@@H](N)Cc1c[nH]cn1)C(=O)N[C@H](Cc1ccccc1)C(=O)N[C@H](C(=O)N[C@H](C(=O)N[C@@H](CC(C)C)C(=O)N[C@@H](CC(=O)O)C(=O)N[C@@H](CC(C)C)C(=O)N[C@@H](CCCCN)C(=O)N[C@@H](C)C(=O)N[C@@H](C)C(=O)N[C@@H](CCCCN)C(=O)N[C@@H](CC(=O)O)C(=O)N[C@@H](Cc1ccccc1)C(=O)N[C@H](C(=O)N[C@H]1CCC(=O)NCCCC[C@@H](C(=O)N[C@H](C(=O)N[C@@H](CCCCN)C(=O)N[C@H](C(=O)N[C@H](C(=O)N[C@@H](CC(=O)O)C(N)=O)[C@@H](C)O)[C@@H](C)CC)[C@@H](C)O)NC(=O)[C@H]([C@@H](C)CC)NC(=O)[C@H](CC(C)C)NC(=O)[C@H](Cc2c[nH]c3ccccc23)NC1=O)[C@@H](C)CC)[C@@H](C)CC)[C@@H](C)O [Example 99] (H-H[Aib]DGSFSDE[Nle][dF]TILDLKAAKDFIEWLIKTKITD-NH2; lactam 24-28 (inferred); C-terminus assumed) |
| 104% | 0.501 nM | 92.1% | 3.98 nM | CCCC[C@@H]1NC(=O)[C@H](CCC(=O)O)NC(=O)[C@@H](NC(=O)[C@H](CO)NC(=O)[C@H](Cc2ccccc2)NC(=O)[C@H](CO)NC(=O)CNC(=O)[C@H](Cc2nn[nH]n2)NC(=O)C(C)(C)C(=O)NCCc2c[nH]cn2)CCCCNC(=O)C[C@@H](C(=O)N[C@H](C(=O)N[C@@H](CC(C)C)C(=O)N[C@@H](CC(=O)O)C(=O)N[C@@H](CC(C)C)C(=O)N[C@@H](CCCCN)C(=O)N[C@@H](C)C(=O)N[C@@H](C)C(=O)NC(C)(C)C(=O)N[C@@H](CC(=O)O)C(=O)N[C@@H](Cc2ccccc2)C(=O)N[C@H](C(=O)N[C@@H](CC(N)=O)C(=O)N[C@@H](Cc2c[nH]c3ccccc23)C(=O)N[C@@H](CC(C)C)C(=O)N[C@H](C(=O)N[C@@H](CCC(N)=O)C(=O)N[C@H](C(=O)N[C@H]2CCC(=O)NCCCC[C@@H](C(N)=O)NC(=O)[C@H]([C@@H](C)O)NC(=O)[C@H]([C@@H](C)CC)NC2=O)[C@@H](C)O)[C@@H](C)CC)[C@@H](C)CC)[C@@H](C)CC)NC(=O)[C@@H](Cc2ccccc2)NC1=O [Example 108] ({Malonyl(2,2-Me2,histaminyl)}-[Ala(1H-tetrazol-5-yl)]GSFSKE[Nle][dF]DILDLKAA[Aib]DFINWLIQTEITK-NH2; lactam 6-10, 28-31; C-terminus assumed) |
| 102% | 0.0251 nM | 94.3% | 0.794 nM | C=CCOC(=O)NCCCC[C@@H]1NC(=O)[C@@H](NC(=O)[C@H](CC(=O)O)NC(=O)[C@H](CC(C)C)NC(=O)[C@@H](NC(=O)[C@@H]2CC(=O)NCCCC[C@H](NC(=O)[C@H](CO)NC(=O)[C@H](Cc3ccccc3)NC(=O)[C@H](CO)NC(=O)CNC(=O)[C@H](Cc3nn[nH]n3)NC(=O)C(C)(C)C(=O)NCCc3c[nH]cn3)C(=O)N[C@@H](CCC(=O)O)C(=O)N[C@@H](CCCC)C(=O)N[C@H](Cc3ccccc3)C(=O)N2)[C@@H](C)CC)CCC(=O)NCCCC[C@@H](C(=O)N[C@@H](CC(=O)O)C(=O)N[C@@H](Cc2ccccc2)C(=O)N[C@H](C(=O)N[C@@H](CC(N)=O)C(=O)N[C@@H](Cc2c[nH]c3ccccc23)C(=O)N[C@@H](CC(C)C)C(=O)N[C@H](C(=O)N[C@@H](CCC(N)=O)C(=O)N[C@H](C(=O)N[C@H]2CCC(=O)NCCCC[C@@H](C(N)=O)NC(=O)[C@H]([C@@H](C)O)NC(=O)[C@H]([C@@H](C)CC)NC2=O)[C@@H](C)O)[C@@H](C)CC)[C@@H](C)CC)NC(=O)[C@H](C)NC(=O)[C@H](C)NC1=O [Example 23] ({Malonyl(2,2-Me2,histaminyl)}-[Ala(1H-tetrazol-5-yl)]GSFSKE[Nle][dF]DILDEK(Alloc)AAKDFINWLIQTEITK-NH2; lactam 6-10, 14-18, 28-31 (inferred); C-terminus assumed) |
